Assay results: publication PMC13056558 (Nature Microbiology, 2026)

Columns and labels:
[1] = target: T1, 60 kDa chaperonin HpGroEL (Helicobacter pylori, UniProt P42383); test: Gel-based in situ competitive labelling against Metro-P3 (ABPP); assay type: cell-based; set-up: gene groEL; endogenous, H. pylori 26695 live cells
[2] = target: T2, thiol peroxidase HpTpx (Helicobacter pylori, UniProt O25151); test: as above; assay type: cell-based; set-up: gene tpx; endogenous, H. pylori 26695 live cells
T2 sequence (O25151 2-166): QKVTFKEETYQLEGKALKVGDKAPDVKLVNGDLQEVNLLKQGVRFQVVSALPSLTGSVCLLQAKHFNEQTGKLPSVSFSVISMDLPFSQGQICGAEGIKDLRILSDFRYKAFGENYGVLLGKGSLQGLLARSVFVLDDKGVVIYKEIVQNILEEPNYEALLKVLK

[3] = target: T2, thiol peroxidase HpTpx; test: In situ ABPP labelling ([…]), gel and LC-MS/MS, competed by Metro; assay type: cell-based; set-up: gene tpx; endogenous, H. pylori 26695 live cells
[4] = target: T1, 60 kDa chaperonin HpGroEL; test: as above; assay type: cell-based; set-up: gene groEL; endogenous, H. pylori 26695 live cells
[5] = target: T3, thiol peroxidase HpTpx (Helicobacter pylori, UniProt O25151, C94A); test: X-ray co-crystal structure, […] Å (reduced amine form Metro*); assay type: binding
T3 construct: gene tpx

[6] = target: T1, 60 kDa chaperonin HpGroEL; test: Intact protein MS and malachite green ATPase assay of modified enzyme; EC50 is from in situ competition with Metro-P3 in H. pylori; assay type: cell-based; set-up: gene groEL; recombinant HpGroEL, modified during anaerobic expression in E. coli
[7] = target: T2, thiol peroxidase HpTpx; test: Intact protein MS and peroxidase assay of modified enzyme; EC50 is from in situ competition with Metro-P3 in H. pylori; assay type: cell-based; set-up: gene tpx; recombinant HpTpx wild type, modified during anaerobic expression in E. coli

T1 sequence (P42383 whole entry): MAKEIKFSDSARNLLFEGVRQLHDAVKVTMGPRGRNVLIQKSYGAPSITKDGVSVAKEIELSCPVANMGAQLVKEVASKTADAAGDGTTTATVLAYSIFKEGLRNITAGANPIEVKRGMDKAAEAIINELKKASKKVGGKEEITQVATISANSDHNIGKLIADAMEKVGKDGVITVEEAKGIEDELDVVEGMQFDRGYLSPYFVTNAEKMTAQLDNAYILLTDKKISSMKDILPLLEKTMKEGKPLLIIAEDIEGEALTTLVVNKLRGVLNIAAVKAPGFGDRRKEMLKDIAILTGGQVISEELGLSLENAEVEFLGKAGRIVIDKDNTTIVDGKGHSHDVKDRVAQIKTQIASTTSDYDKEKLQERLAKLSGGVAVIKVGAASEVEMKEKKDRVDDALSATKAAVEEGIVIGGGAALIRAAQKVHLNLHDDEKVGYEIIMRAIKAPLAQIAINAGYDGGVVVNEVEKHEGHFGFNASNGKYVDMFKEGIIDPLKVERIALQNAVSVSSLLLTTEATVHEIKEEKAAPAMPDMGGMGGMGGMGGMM

`CCOCCn1c([N+](=O)[O-])cnc1C` [MF-03] was tested, and the EC50 [1] was 40 µM and the EC50 [2] was 17 µM.

With `C#CCOCCn1c([N+](=O)[O-])cnc1C` [Metro-P1] the “In situ ABPP labelling (1 μM), gel and LC-MS/MS, competed by Metro” value [3] was 18-kDa HpTpx band was solely diminished in case of ether derivatives Metro-P1 and Metro-P3 upon Metro pre-incubation and the “In situ ABPP labelling (1 μM), gel and LC-MS/MS, competed by Metro” value [4] was “a 60-kDa band decreased for all three probes”.

In the case of `Cc1ncc([N+](=O)[O-])n1CCO` [Metro, Metronidazole], the “X-ray co-crystal structure, 1.75 Å (reduced amine form Metro*)” value [5] is reported as “forms an irreversible thioether bond with the CP residue”, the EC50 [6] is reported as 24 µM and the EC50 [7] is reported as 250 µM.
